Results: ChEMBL document CHEMBL5247647, “Phenothiazine-Based LSD1 Inhibitor Promotes T-Cell Killing Response of Gastric Cancer Cells” (J Med Chem, 2023)
Active and inactive are the calls of the source. No cut-off for these calls is given here.

Legend:
[1] = Toxicity against 615 mouse xenografted with mouse MFC cells in assessed as pathological changes in liver at 10 to 50 mg/kg, po for 14 days by Hematoxylin and Eosin staining based microscopic analysis; format: organism-based; settings: in vivo, 336 h, dose 10-50 mg/kg, time 14 day
[2] = molecular target: T1, Lysine-specific histone demethylase 1A (Homo sapiens, UniProt O60341); assay: Inhibition of human LSD1 in human BGC-823 cells assessed as inhibition of H3K4me3 demethylation at 5 to 20 uM incubated for 5 days by Western blot anlaysis; format: cell-based; settings: dose 5-20 µM, time 5.0 day
MAO-B = molecular target: T2, MAO-B (Homo sapiens, UniProt P27338); assay: Inhibition of recombinant human MAO-B at 10 uM
T2 sequence (P27338 whole entry): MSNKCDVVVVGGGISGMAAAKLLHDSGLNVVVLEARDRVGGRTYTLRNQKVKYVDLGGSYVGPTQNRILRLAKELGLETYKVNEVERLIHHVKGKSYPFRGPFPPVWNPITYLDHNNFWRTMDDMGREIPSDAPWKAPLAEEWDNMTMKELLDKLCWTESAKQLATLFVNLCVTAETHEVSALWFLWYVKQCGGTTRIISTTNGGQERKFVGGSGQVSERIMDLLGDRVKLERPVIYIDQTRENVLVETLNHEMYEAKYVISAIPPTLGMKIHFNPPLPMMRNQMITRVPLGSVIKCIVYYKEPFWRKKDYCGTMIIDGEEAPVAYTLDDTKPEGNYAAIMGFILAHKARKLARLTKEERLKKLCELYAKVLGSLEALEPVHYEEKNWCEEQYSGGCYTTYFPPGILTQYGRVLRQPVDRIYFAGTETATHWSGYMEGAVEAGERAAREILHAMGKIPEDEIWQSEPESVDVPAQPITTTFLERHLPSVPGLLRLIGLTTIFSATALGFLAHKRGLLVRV

[3] = molecular target: T1, Lysine-specific histone demethylase 1A; assay: Inhibition of human LSD1 in human LSD1 knockout BGC-823 cells assessed as effect on H3K4me2 methylation at 5 to 20 uM incubated for 5 days by Western blot anlaysis; format: cell-based; settings: dose 5-20 µM, time 5.0 day
BGC-823 [4] = assay: Anticancer activity against human BGC-823 cells assessed as increase in CD3/CD28 activated T-cell killing response by measuring TNFalpha level at 5 to 20 uM incubated for 5 days by Sandwich ELISA; format: functional, cell-based; settings: dose 5-20 µM, time 5.0 day
BGC-823 [5] = assay: Downregulation of PD-L1 expression in human LSD1 knockout BGC-823 cells transfected with wild type LSD1 plasmid at 20 uM incubated for 5 days by Western blot anlaysis; format: functional, cell-based; settings: time 5.0 day
MFC [6] = assay: Antiproliferative activity against mouse MFC cells assessed as inhibition of cell proliferation incubated for 48 hrs by SRB assay; format: functional, cell-based
MFC [7] = assay: Antitumor activity against mouse MFC cells xenografted in 615 mouse assessed as decrease in intratumoral PD-L1 expression at 10 to 50 mg/kg, po for 14 days by Western blot analysis; format: functional, organism-based; settings: dose 10-50 mg/kg, time 14.0 day
BGC-823 [8] = assay: Anticancer activity against human BGC-823 cells assessed as increase in CD3/CD28 activated T-cell killing response at 5 to 20 uM incubated for 5 days by DAPI staining based assay; format: functional; settings: dose 5-20 µM, time 5.0 day
[9] = Toxicity against 615 mouse xenografted with mouse MFC cells in assessed as pathological changes in kidney at 10 to 50 mg/kg, po for 14 days by Hematoxylin and Eosin staining based microscopic analysis; format: organism-based; settings: in vivo, 336 h, dose 10-50 mg/kg, time 14 day
BGC-823 [10] = assay: Downregulation of PD-L1 mRNA expression in human BGC-823 cells at 5 to 5 to 20 uM incubated for 5 days; format: functional, cell-based; settings: dose 5-20 µM, time 5.0 day
BGC-823 [11] = assay: Downregulation of PD-L1 expression in human LSD1 knockout BGC-823 cells at 5 to 20 uM incubated for 5 days by Western blot anlaysis; format: functional, cell-based; settings: dose 5-20 µM, time 5.0 day
MFC [12] = assay: Antitumor activity against mouse MFC cells xenografted in 615 mouse assessed as increase in IL-2 mRNA expression level in tumor at 10 to 50 mg/kg, po for 14 days; format: functional, organism-based; settings: dose 10-50 mg/kg, time 14.0 day
MFC [13] = assay: Antitumor activity against mouse MFC cells xenografted in 615 mouse assessed as tumor growth suppression at 10 to 50 mg/kg, po for 14 days; format: functional, organism-based; settings: dose 10-50 mg/kg, time 14.0 day
MFC [14] = assay: Antitumor activity against mouse MFC cells xenografted in 615 mouse assessed as increase in infiltration of CD8+ T cells into tumor at 10 to 50 mg/kg, po for 14 days by immunohistochemistry; format: functional, organism-based; settings: dose 10-50 mg/kg, time 14.0 day
[15] = Toxicity against 615 mouse xenografted with mouse MFC cells in assessed as body weight change in tumor at 10 to 50 mg/kg, po for 14 days; format: organism-based; settings: in vivo, 336 h, dose 10-50 mg/kg, time 14 day
[16] = molecular target: T3, Lysine-specific histone demethylase 2 (Homo sapiens) (UniProt Q8NB78); assay: Inhibition of recombinant LSD2 (unknown origin) at 10 uM
T3 sequence (whole entry): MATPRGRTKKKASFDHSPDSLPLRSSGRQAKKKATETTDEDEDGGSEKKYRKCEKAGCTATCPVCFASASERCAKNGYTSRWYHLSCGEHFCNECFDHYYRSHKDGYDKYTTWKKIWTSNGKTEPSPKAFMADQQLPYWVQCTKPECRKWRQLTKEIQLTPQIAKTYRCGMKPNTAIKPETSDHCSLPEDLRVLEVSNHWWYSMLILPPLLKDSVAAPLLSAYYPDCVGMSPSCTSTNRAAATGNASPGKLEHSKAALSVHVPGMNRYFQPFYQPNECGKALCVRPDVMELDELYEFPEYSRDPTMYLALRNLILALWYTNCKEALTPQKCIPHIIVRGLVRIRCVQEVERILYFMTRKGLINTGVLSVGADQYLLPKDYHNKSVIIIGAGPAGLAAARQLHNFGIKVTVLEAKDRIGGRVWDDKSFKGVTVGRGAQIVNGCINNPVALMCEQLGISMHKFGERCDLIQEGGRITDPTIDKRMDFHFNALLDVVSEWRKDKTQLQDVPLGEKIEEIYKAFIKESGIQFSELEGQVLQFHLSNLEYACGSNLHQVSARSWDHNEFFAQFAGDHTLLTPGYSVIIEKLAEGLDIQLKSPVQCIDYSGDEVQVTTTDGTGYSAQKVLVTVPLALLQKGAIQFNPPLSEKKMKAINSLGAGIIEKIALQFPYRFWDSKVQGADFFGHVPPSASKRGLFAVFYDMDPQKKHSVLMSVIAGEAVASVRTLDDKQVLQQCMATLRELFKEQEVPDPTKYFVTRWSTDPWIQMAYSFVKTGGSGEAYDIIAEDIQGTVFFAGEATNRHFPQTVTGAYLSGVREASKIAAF

MFC [17] = assay: Antitumor activity against mouse MFC cells xenografted in 615 mouse assessed as increase in IL-2 expression level in tumor at 10 to 50 mg/kg, po for 14 days by ELISA; format: functional, organism-based; settings: dose 10-50 mg/kg, time 14.0 day
MFC [18] = assay: Antitumor activity against mouse MFC cells xenografted in 615 mouse assessed as decrease in tumor weight at 10 to 50 mg/kg, po for 14 days; format: functional, organism-based; settings: dose 10-50 mg/kg, time 14.0 day
BGC-823 [19] = assay: Antiproliferative activity against human BGC-823 cells assessed as inhibition of cell proliferation incubated for 48 hrs by SRB assay; format: functional, cell-based
[20] = molecular target: T1, Lysine-specific histone demethylase 1A; assay: Inhibition of human LSD1 in human BGC-823 cells assessed as inhibition of H3K4me1 demethylation at 5 to 20 uM incubated for 5 days by Western blot anlaysis; format: cell-based; settings: dose 5-20 µM, time 5.0 day
BGC-823 [21] = assay: Anticancer activity against human BGC-823 cells assessed as increase in CD3/CD28 activated T-cell killing response by measuring IFNgamma level at 5 to 20 uM incubated for 5 days by Sandwich ELISA; format: functional, cell-based; settings: dose 5-20 µM, time 5.0 day

- inhibition [2]: inactive
- inhibition at 10 µM (MAO-B): < 10%
- inhibition [3]: inactive
- inhibition [16]: > 10%
- inhibition [20]: Active
SMILES: c1ccc2c(c1)Sc1ccccc1N2CCN1CCOCC1
- Activity [1]: Non-Toxic
- Activity (BGC-823 [4]): Active
- Activity (BGC-823 [5]): Active
- Activity (MFC [6]): inactive
- Activity (MFC [7]): Dose-Dependent Effect
- Activity (BGC-823 [8]): Dose-Dependent Effect
- Activity [9]: Non-Toxic
- Activity (BGC-823 [10]): Dose-Dependent Effect
- Activity (BGC-823 [11]): inactive
- Activity (MFC [12]): Active
- Activity (MFC [13]): Dose-Dependent Effect
- Activity (MFC [14]): Active
- Activity [15]: Non-Toxic
- Activity (MFC [17]): Active
- Activity (MFC [18]): Active
- Activity (BGC-823 [19]): inactive
- Activity (BGC-823 [21]): Active
